Measured values published in patent US20230374068A1, “COMPOSITIONS AND METHODS FOR TREATING A DISEASE” (RAMOT AT TEL AVIV UNIVERSITY LTD., priority 2021, published 2023).
“Also recorded” adds a separate entry of the source.

How the values were obtained:
[1] = test system: Rab12 phosphorylation; assay: Rab12 phosphorylation in PC12 cells, Ion/TPA- or rotenone-treated (western blot); type: cell-based
Protocol: Cells that were incubated in the absence of rotenone were then left untreated or incubated with a combination of 1 μM 4-bromo-calcium ionophore A23187 (Ion) and 50 nM of the phorbol ester (TPA) for 30 minutes at 37° C. Cells were then washed three times with PBS, lysed with lysis buffer containing phosphatase inhibitors and cell lysates analysed by western blotting with anti phosphoRab12 antibodies followed by re-probing with anti GAPDH antibodies. […] The results are the fold increase in Rab12 phosphorylation based on the ratio of phosphorylated Rab12 to GAPDH.
Samples were separated by SDS-PAGE using 10-12% polyacrylamide gels and electrophoretically transferred to nitrocellulose membranes. Blots were blocked for 20 min in TBST (10 mM Tris-HCl, pH 8.0, 150 mM NaCl, and 0.05% Tween 20) containing 5% skim-milk, followed by overnight incubation at 4° C. with the desired primary Abs. Blots were washed three times and incubated for 1 hour at room temperature with HRP-conjugated secondary Ab. Immunoreactive bands were visualized by the ECL method according to standard procedures. The intensity of the immunoreactive bands was quantified using ImageJ software.
For Rab12 phosphorylation in PC12 cells, cells were grown for 48 hours either in growth medium or in medium supplemented with 1 μM LY333531 or 10 μM GSK2578215A in the absence or presence of 100 nM rotenone. For Ion/TPA-stimulated phosphorylation, cells grown in medium only or medium containing inhibitors, were stimulated with 1 μM 4-bromo-calcium ionophore A23187 (Ion) and 50 nM of the phorbol ester (TPA) for 30 minutes. Cells were processed as above.

[2] = test system: Rab12 phosphorylation; assay: Rab12 phosphorylation in Ion/TPA-activated BMMCs with inhibitors (western blot); type: cell-based, mouse; conditions: 1 μM inhibitor, 30 min pre-incubation, then Ion/TPA 30 min
Protocol: BMMCs were seeded in 10 cm plates overnight in growth medium or medium containing 400 nM TPA. Next day cells were collected and washed three times with Tyrode's buffer in Eppendorf tubes. Cells were subsequently incubated for 30 minutes at 37° C. with vehicle (0.1% DMSO) or with 10 μM GSK2578215A (GSK), 1 μM Go6976, 2 mM EGTA or 1 μM MRT68921, as indicated. Cells were then left untreated (UT) or treated for additional 30 minutes at 37° C., with a combination of 1 μM 4-bromo-calcium ionophore A23187 (Ion) and 50 nM of the phorbol ester (TPA), in the absence or presence of the inhibitors. Cells were then washed three times with PBS, lysed with lysis buffer containing phosphatase inhibitors and cell lysates analysed by western blotting with anti phosphoRab12 antibodies followed by reprobing with anti Rab12 antibodies. A representative blot is shown.
The results are the relative ratio of phosphorylated to total Rab12. […]
Samples were separated by SDS-PAGE using 10-12% polyacrylamide gels and electrophoretically transferred to nitrocellulose membranes. […] The intensity of the immunoreactive bands was quantified using ImageJ software.
Cells (RBL, BMMCs or SH-SY5Y) were grown overnight in growth medium or medium containing 400 nM TPA, where indicated. […] Cells were then washed with PBS and lysed for 30 minutes in lysis buffer D. Cell lysates were analyzed by western blotting. […]

[3] = target: T1, Rab12 interaction with RILP (Mus musculus, UniProt Q5ND29); assay: Peptide inhibition of Rab12 pulldown by GST-RILP from RBL cell lysates; type: binding, rat; conditions: 100 μM peptide, 4 h at 4° C., then RBL cell lysate overnight
T1 construct: made in house
T1 sequence (Q5ND29 1-369): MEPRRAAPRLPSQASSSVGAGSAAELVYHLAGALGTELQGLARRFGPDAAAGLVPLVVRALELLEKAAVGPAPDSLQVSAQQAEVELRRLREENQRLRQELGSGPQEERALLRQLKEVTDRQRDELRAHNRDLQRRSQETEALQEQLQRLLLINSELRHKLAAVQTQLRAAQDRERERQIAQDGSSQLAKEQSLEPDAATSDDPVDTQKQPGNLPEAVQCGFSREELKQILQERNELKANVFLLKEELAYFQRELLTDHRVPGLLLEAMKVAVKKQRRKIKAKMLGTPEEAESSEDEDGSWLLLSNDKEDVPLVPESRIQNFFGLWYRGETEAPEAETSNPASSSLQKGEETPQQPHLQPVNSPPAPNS
Protocol: At the end of the incubation period, beads were sedimented by centrifugation at 5000×g for 5 min at 4° C., washed four times with 50 mM Hepes pH 7.4, 150 mM NaCl, 1 mM MgCl2, 0.2% Triton X-100, protease inhibitor mixture, 1 mM PMSF, 2 mM Na3VO4, 10 mM NaPPi and 80 mM β-glycerophosphate and suspended in 1× sample buffer and boiled for 7 minutes. Proteins were resolved by SDS-PAGE and analyzed by immunoblotting with anti Rab12 antibodies. […] The results are the average pulldown±SEM derived from two independent experiments.
Pulldown assays were performed as previously described 2. Briefly, 20 μg of GST fusion proteins or control GST immobilized on Glutathione Agarose beads were incubated for 18 hours at 4° C. with RBL cell lysates (500 μg) prepared in buffer C (50 mM Hepes pH 7.4, 150 mM NaCl, 1 mM MgCl2, 1% TritonX100, 1 mM PMSF, protease inhibitor mixture, 2 mM Na3VO4) in the presence of 0.5 mM GTPγS. At the end of the incubation period, beads were sedimented by centrifugation at 5000×g for 5 minutes at 4° C., washed 4 times in buffer C with 0.2% TritonX100, and finally suspended in sample buffer, boiled for 7 minutes, and subjected to SDS-PAGE and immunoblotting. […]

[4] = test system: PC12 cells; assay: SG distribution, cell morphology and primary cilia in PC12 cells expressing CA Rab12 (confocal microscopy); type: cell-based
Protocol: Cells (4×10^4 cells/well) were seeded onto 12 mm round glass coverslips in a 24-well plate. Next day, cells were transiently co-transfected using lipofectamine 2000 with 500 ng of plasmid encoding NPY-mRFP and 1000 ng of pEGFP-C1-Rab12(Q100L), a GTP-locked, constitutively active mutant of Rab12 (herein: CA Rab12). After transfection, cells were either left untreated (UT) or incubated for 48 hours at 37° C. with 100 nM rotenone. After 48 hours, cells were incubated for an additional hour at 37° C. with or without 100 μM of TAT-125 peptide (i.e. […], SEQ ID NO: 14), as indicated. Cells were then fixed and immunostained with polyclonal antibodies directed against Arl13b (primary cilium marker), followed by Hilyte Plus 647-conjugated goat anti-rabbit IgG. Cells were visualized by confocal microscopy. The right panels are the overlap of the confocal images on the corresponding brightfield.
RBL cells (4×10^5 cells/well) or PC12 cells (4×10^4 cells/well) were grown on 12-mm round glass coverslips, washed three times with PBS, and fixed for 20 min at room temperature with 4% paraformaldehyde in PBS. […] After washing, the cells were mounted (Golden Bridge Life Science, Mukilteo City, WA) and analyzed using a LEICA SP8 STED high resolution laser scanning confocal microscope (Leica, Wetzlar, Germany) using a 63 oil/1.4 numerical aperture objective. […]

[5] = target: T2, endogenous Rab12 of RBL cells (rat, UniProt P35284 49-291, limits assumed); assay: GST pulldown of endogenous Rab12 from resting RBL cell lysates, anti-Rab12 immunoblot
T2 construct: Total Rab12 pulled down from cell lysates (blot reprobed with anti-Rab12)
T2 sequence (looked up): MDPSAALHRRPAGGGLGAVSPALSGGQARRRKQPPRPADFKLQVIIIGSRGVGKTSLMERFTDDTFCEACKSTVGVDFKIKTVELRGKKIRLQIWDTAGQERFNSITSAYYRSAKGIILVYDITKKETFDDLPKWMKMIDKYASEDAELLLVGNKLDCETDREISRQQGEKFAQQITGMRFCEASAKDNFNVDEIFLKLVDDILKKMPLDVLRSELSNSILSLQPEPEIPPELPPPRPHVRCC
Protocol: Cells were then lysed and 500 μg of cell lysate were incubated overnight at 4° C. with either GST, GST-RILP, GST-RILP-L1 or GST-RILP-L2, immobilized on glutathione agarose beads, as indicated. At the end of the incubation period, beads were sedimented by centrifugation at 5000×g for 5 minutes at 4° C., washed four times with buffer containing 50 mM Hepes pH 7.4, 150 mM NaCl, 1 mM MgCl₂, 0.2% Triton X-100, protease inhibitor mixture, 1 mM PMSF, 2 mM Na₃VO₄, 10 mM NaPPi and 80 mM β-glycerophosphate and suspended in 1× sample buffer and boiled for 7 minutes. Proteins were resolved by SDS-PAGE and analyzed by immunoblotting with the anti-phosphoRab12 antibodies, followed by reprobing with anti Rab12 antibodies, as indicated. Representative blots are shown. Similar results were obtained in two separate experiments.
Next, it was assessed whether […] any impact on Rab12 interactions with its RILP family effectors. To this end, lysates derived from resting RBL cells or RBL cells that were triggered with either IgE/Ag or Ion/TPA, were subjected to pulldown assays by chimeric proteins consisting of GST-fused to either RILP, RILP-L1, or RILP-L2, or control GST. […] Therefore, under these conditions, the efficacy of Rab12-effector interactions was RILP-L1>RILP>>>RILP-L2.

With O=C(Nc1cccnc1)c1cc(-c2ccnc(F)c2)ccc1OCc1ccccc1 [GSK2578215A] the “rotenone-induced phosphorylation of Rab12” value ([1]; 100 nM rotenone 48 h with 1 μM LY333531 or 10 μM GSK2578215A) was “significantly inhibited” and the “Ion/TPA-induced phosphorylation of Rab12” value ([1]; 1 μM LY333531 or 10 μM GSK2578215A 48 h, Ion/TPA 30 min) was “resistant”.

With Cn1c2ccccc2c2c3c(c4c5ccccc5n(CCC#N)c4c21)CNC3=O [Go6976] the “Ion/TPA-stimulated phosphorylation of Rab12” value [2] was “significantly inhibited”.

CN1CCc2cc(Nc3ncc(C4CC4)c(NCCCNC(=O)C4CCC4)n3)ccc2C1 [MRT68921] was tested, and the “Ion/TPA-stimulated phosphorylation of Rab12” value [2] was “significantly inhibited”.

For C=C(C)[C@H]1Cc2c(ccc3c2O[C@@H]2COc4cc(OC)c(OC)cc4[C@@H]2C3=O)O1 [rotenone], the “induction of Rab12 phosphorylation” value ([1]; Ion/TPA 30 min or 100 nM rotenone 48 h) was “induced”.

In the case of “EACKSTVGVDFKIKT [peptide Rab125, human Rab12 residues 69-83]”, the “pulldown of Rab12 by GST-RILP” value [3] is reported as “could inhibit”.

“ERFNSITSAYYRSAK [peptide Rab121, human Rab12 residues 102-116]” was tested, and the “pulldown of Rab12 by GST-RILP” value [3] was “could inhibit”.

With “YGRKKRRQRRRGGEACKSTVGVDFKIKT [TAT-125, cell permeable version of peptide 125]” the “cellular distribution of the SGs (Rab12-RILP interaction in intact cells)” value ([4]; PC12 cells expressing CA Rab12 and NPY-mRFP, 100 μM TAT-125) was “partial scattering of the clustered SGs” and the “cell morphology and primary cilia of rotenone treated cells” value ([4]; PC12 cells, 100 nM rotenone 48 h, then 100 μM TAT-125) was “improves the cell morphology; also recorded: regained their normal appearance and size”.

B1: GST-RILP-L1 (pGEX-4T-3-RILP-L1) (other, mouse, UniProt Q9JJC6 1-406, looked up)
chain: MEEPLGSPPAALSALEKNVAELTVMDVYDIASLVGHEFERVIDQHGCESIARLMPKVVRVLEILEVLVSRHHVAPELDELRLELDRLRVERMDRIEKERKHQKELELVEDVWRGEAQDLLSQIAQLQEENKQLMTNLNHKDVGFSEEEFQKQEGMSERERQVMKRLKEVVDKQRDELRAKDRELGLKNEDVEALQQQQTRLMKINHDLRHRVTVVEAQGKALIEQKVELEADLQTKEQEMGSLRAELGKLRERLQGEHSQNGEEEEAEIQPQPDGEESISDAEKAALDLKDPNRPRFTLQELRDVLHERNELKSKVFLLQEELAYYKSEEIEEENRIPQPPPITHPRTSPQPESGIKRLFSFFSRDKKRLANTQRPTHIHESFGQWAITQRDDGYTEQGQEALQHL
notes: Immobilized on glutathione agarose beads; not shown: glutathione S-transferase (GST) encoded by the pGEX-4T-3 vector
With B1 the “fold pulldown efficacy against GST-RILP” value [5] was 3 fold and the “fold pulldown efficacy against GST-RILP-L2” value [5] was 9 fold.
